{"source": "patent EP4748847A1", "about": "“PEPTIDE COMPLEX HAVING VEGFR -2 AGONIST ACTIVITY” (Peptidream Inc, priority 2023, dated 2025)", "molecules": {"B1": {"name": "Peptide complex Dimer Structure No. 14 (peptide)", "peptide": "{CH2CO}-WWVDVKDDLYFVDCG-NH2", "modifications": "thioether N-14; not fully specified (residue 6); also: homodimer: Lys6 joined to Lys6 of second copy by cPEG13c (Linker Structure No. 3)"}, "B2": {"name": "Peptide complex Dimer Structure No. 25 (peptide)", "peptide": "{CH2CO}-WW[Chg]DVKDDLYF[hTyr]DCG-NH2", "modifications": "thioether N-14; not fully specified (residue 6); also: homodimer: Lys6 joined to Lys6 of second copy by cPEG17c (Linker Structure No. 4)"}}, "note": "*1 amine or outer side, *2 acyl side, *3 side chain or, on linkers, in order; H or OH if unused. Where a SMILES comes first, the peptide text is derived from it. Bridges are numbered along the chain shown (N, C = ends). Roman numbers before positions name the chains, in order. [ ]: non-standard residue; d: D form. The star is where a group is joined. CO(CH2)2(OCH2CH2)17CO = O=C(CCOCCOCCOCCOCCOCCOCCOCCOCCOCCOCCOCCOCCOCCOCCOCCOCCOCCC(=O)[*:2])[*:1]; PEG12 = NCCOCCOCCOCCOCCOCCOCCOCCOCCOCCOCCOCCOCCC(=O)O; Phe(4-guanidino) = N=C(N)Nc1ccc(C[C@H](N)C(=O)O)cc1; hTyr = N[C@@H](CCc1ccc(O)cc1)C(=O)O; Chg = N[C@H](C(=O)O)C1CCCCC1; Tle = CC(C)(C)[C@H](N)C(=O)O; Carboxymethyl = O=C(O)C*"}
{"target": "T1, VEGFR-2 (human, UniProt P35968 20-1356)", "T1 sequence (P35968 20-1356)": "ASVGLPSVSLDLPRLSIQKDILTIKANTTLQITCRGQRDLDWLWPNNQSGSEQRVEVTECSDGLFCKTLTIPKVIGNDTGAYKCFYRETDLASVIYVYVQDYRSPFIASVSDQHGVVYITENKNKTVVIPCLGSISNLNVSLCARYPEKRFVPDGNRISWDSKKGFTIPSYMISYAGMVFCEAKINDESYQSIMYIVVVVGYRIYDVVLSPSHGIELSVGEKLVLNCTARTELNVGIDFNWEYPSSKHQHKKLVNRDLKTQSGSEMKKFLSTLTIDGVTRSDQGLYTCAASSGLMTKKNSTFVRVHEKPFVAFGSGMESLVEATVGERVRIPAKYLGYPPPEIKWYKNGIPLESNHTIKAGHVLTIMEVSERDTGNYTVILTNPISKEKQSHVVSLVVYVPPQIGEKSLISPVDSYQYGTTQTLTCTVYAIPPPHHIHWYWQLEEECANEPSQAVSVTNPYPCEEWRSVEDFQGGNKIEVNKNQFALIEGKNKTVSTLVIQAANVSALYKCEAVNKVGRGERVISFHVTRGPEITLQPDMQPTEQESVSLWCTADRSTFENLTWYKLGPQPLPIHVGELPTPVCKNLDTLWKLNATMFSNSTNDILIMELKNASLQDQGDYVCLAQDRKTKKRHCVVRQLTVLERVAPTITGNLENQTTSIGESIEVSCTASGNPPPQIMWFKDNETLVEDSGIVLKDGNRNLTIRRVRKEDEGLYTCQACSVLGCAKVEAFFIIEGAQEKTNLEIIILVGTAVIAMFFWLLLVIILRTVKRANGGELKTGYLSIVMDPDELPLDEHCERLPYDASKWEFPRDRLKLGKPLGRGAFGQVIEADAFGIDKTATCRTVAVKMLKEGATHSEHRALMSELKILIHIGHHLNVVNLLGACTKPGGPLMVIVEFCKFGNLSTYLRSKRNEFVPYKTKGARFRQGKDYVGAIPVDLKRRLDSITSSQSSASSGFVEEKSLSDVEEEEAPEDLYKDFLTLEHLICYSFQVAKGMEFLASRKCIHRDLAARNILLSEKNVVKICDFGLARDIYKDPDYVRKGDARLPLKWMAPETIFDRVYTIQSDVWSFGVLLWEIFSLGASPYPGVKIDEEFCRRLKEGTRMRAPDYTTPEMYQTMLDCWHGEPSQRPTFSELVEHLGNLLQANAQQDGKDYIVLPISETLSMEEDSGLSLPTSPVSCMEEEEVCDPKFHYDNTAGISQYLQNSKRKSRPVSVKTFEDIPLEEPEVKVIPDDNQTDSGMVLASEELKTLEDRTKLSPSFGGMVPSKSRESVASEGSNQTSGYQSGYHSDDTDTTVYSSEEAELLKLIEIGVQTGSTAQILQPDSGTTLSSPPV", "test": "cell-based or functional assay", "conditions": "not given", "units": {"pERK Assay Results (AlphaLISA p-Erk1/2, HUVEC)": "% activity at 10 nM"}}
{"molecule": "B1", "pERK Assay Results (AlphaLISA p-Erk1/2, HUVEC)": "≥ 50"}
{"molecule": "B2", "pERK Assay Results (AlphaLISA p-Erk1/2, HUVEC)": "≥ 50"}
{"target": "T1, VEGFR-2", "test": "cell-based or functional assay", "conditions": "not given", "remark": "another data set of the same source"}
{"molecule": "B1", "proliferation (HUVEC, CellTiter-Glo)": "< 50 % activity at 100 nM"}
{"molecule": "B2", "proliferation (HUVEC, CellTiter-Glo)": "≥ 50 % activity at 10 nM"}
{"target": "T2, VEGFR-2 (Homo sapiens, UniProt P35968)", "T2 construct": "endogenous in cells; host or cells: HUVEC", "T2 sequence (P35968 20-1356)": "as above", "test": "pVEGFR AlphaLISA assay (VEGFR-2 phosphorylation, p-Tyr1175) in HUVECs", "assay_type": "cell-based", "conditions": "10 minutes stimulation, % activity, maximum VEGF165a signal = 100%, unstimulated = 0%, peptide 10, 100 nM (dimer structures 2-41)", "protocol": "To evaluate the VEGFR-2 activation ability of the VEGFR-2 agonist peptides of the present invention, VEGFR-2 phosphorylation was verified. HUVECs were cultured using EGM™ -2 Endothelial Cell Growth Medium-2 BulletKit (LONZA; CC-3162). After detaching cells using Tryple (Thermo Fisher Scientific), they were seeded into a 96-well PDL-coated plate (Corning: 354461) at a density of 24,000 cells per well and cultured for 2 days. For starvation, the medium was replaced with EBM-2 medium (LONZA) containing 0.5% FBS (Thermo Fisher Scientific), 0.1% heparin (included with the above LONZA CC-3162), and 0.1% gentamicin (Nacalai), and the cells were cultured for 18 hours. Subsequently, Recombinant Human VEGF165a Protein (R&D Systems) or the peptide was added, and the cells were cultured in a CO2 incubator at 37°C. After 10 minutes of stimulation, cells were lysed using the Lysis Buffer included in the AlphaLISA SureFire Ultra VEGFR-2 (p-Tyr1175) Assay Kit (PerkinElmer) to lyse the cells. The procedure was performed according to the kit protocol, and signal detection was performed using a SpectraMax Paradigm multimode microplate reader (Molecular Devices). The obtained signals were analyzed using GraphPad Prism, and % activity was calculated with the maximum signal induced by VEGF165a set as 100% and the unstimulated control as 0%.\nThe VEGF165a concentration was evaluated at five points (0.08, 0.31, 1.25, 5, 20 nM) using 1/4-fold dilutions starting from 20 nM to determine the maximum value (100%). Peptide concentrations tested were: 3.2, 16, 80 nM for dimer structure number 1; 10, 100 nM for dimer structures numbers 2-41; and 1.25, 5, 20 nM for dimer structures numbers 42-57. […]\nPeptides showing 50% or more activity at 10 nM were designated 2-A, those showing 50% or more activity at 100 nM were designated 2-B, and those showing 1% or more but less than 50% activity at 100 nM were designated 2-C.\nPeptides showing 50% or more activity at 1.25 nM were designated 3-A, those showing 50% or more activity at 5 nM were designated 3-B, those showing 50% or more activity at 20 nM were designated 3-C, and those showing 1% or more but less than 50% activity at 20 nM were designated 3-D."}
{"molecule": "CC(C)C[C@@H]1NC(=O)[C@H](CC(=O)O)NC(=O)[C@H](CC(=O)O)NC(=O)[C@H](CCCCNC(=O)CCOCCOCCOCCOCCOCCOCCOCCOCCOCCOCCOCCOCCOCCOCCOCCOCCOCCC(=O)NCCCC[C@@H]2NC(=O)[C@H](C(C)C)NC(=O)[C@H](CC(=O)O)NC(=O)[C@H](C(C)(C)C)NC(=O)[C@H](Cc3c[nH]c4ccccc34)NC(=O)[C@H](Cc3c[nH]c4ccccc34)NC(=O)CSC[C@@H](C(=O)NCC(N)=O)NC(=O)[C@H](CC(=O)O)NC(=O)[C@H](C(C)C)NC(=O)[C@H](Cc3ccc(NC(=N)N)cc3)NC(=O)[C@H](Cc3ccc(O)cc3)NC(=O)[C@H](CC(C)C)NC(=O)[C@H](CC(=O)O)NC(=O)[C@H](CC(=O)O)NC2=O)NC(=O)[C@H](C(C)C)NC(=O)[C@H](CC(=O)O)NC(=O)[C@H](C(C)(C)C)NC(=O)[C@H](Cc2c[nH]c3ccccc23)NC(=O)[C@H](Cc2c[nH]c3ccccc23)NC(=O)CSC[C@@H](C(=O)NCC(N)=O)NC(=O)[C@H](CC(=O)O)NC(=O)[C@H](C(C)C)NC(=O)[C@H](Cc2ccc(NC(=N)N)cc2)NC(=O)[C@H](Cc2ccc(O)cc2)NC1=O", "note": "[Dimer Structure No. 43] (I: {CH2CO}-WW[Tle]DVKDDLY[Phe(4-guanidino)]VDCG-NH2 / II: {CH2CO}-WW[Tle]DVKDDLY[Phe(4-guanidino)]VDCG-NH2; linker I:6-II:6 via CO(CH2)2(OCH2CH2)17CO; thioether I:N-I:14, II:N-II:14)", "pVEGFR2 Assay Results": "2-C (1% or more but less than 50% activity at 100 nM)"}
{"molecule": "CC(C)C[C@@H]1NC(=O)[C@H](CC(=O)O)NC(=O)CNC(=O)[C@H](CCC(N)=O)NC(=O)[C@H](C(C)C)NC(=O)[C@H](CC(=O)O)NC(=O)[C@H](C(C)C)NC(=O)[C@H](Cc2c[nH]c3ccccc23)NC(=O)[C@H](Cc2c[nH]c3ccccc23)NC(=O)CSC[C@@H](C(=O)NCC(=O)NCCOCCOCCOCCOCCOCCOCCOCCOCCOCCOCCOCCOCCC(=O)NCCCC[C@H](NC(=O)CCOCCOCCOCCOCCOCCOCCOCCOCCOCCOCCOCCOCCNC(=O)CNC(=O)[C@@H]2CSCC(=O)N[C@@H](Cc3c[nH]c4ccccc34)C(=O)N[C@@H](Cc3c[nH]c4ccccc34)C(=O)N[C@@H](C(C)C)C(=O)N[C@@H](CC(=O)O)C(=O)N[C@@H](C(C)C)C(=O)N[C@@H](CCC(N)=O)C(=O)NCC(=O)N[C@@H](CC(=O)O)C(=O)N[C@@H](CC(C)C)C(=O)N[C@@H](Cc3ccc(O)cc3)C(=O)N[C@@H](Cc3ccccc3)C(=O)N[C@@H](C(C)C)C(=O)N[C@@H](CC(=O)O)C(=O)N2)C(N)=O)NC(=O)[C@H](CC(=O)O)NC(=O)[C@H](C(C)C)NC(=O)[C@H](Cc2ccccc2)NC(=O)[C@H](Cc2ccc(O)cc2)NC1=O", "note": "[compound 7] (I: {CH2CO}-WWVDVQGDLYFVDCG[PEG12]K-NH2 / II: {CH2CO}-WWVDVQGDLYFVDCG[PEG12]; amide I:17-II:C; thioether I:N-I:14, II:N-II:14)", "pVEGFR2 Assay Results": "2-C (1% or more but less than 50% activity at 100 nM)"}
{"molecule": "CC(C)C[C@@H]1NC(=O)[C@H](CC(=O)O)NC(=O)[C@H](CC(=O)O)NC(=O)[C@H](CCC(N)=O)NC(=O)[C@H](C(C)C)NC(=O)[C@H](CC(=O)O)NC(=O)[C@H](C(C)C)NC(=O)[C@H](Cc2c[nH]c3ccccc23)NC(=O)[C@H](Cc2c[nH]c3ccccc23)NC(=O)CSC[C@@H](C(=O)NCC(=O)NCCOCCOCCOCCOCCOCCOCCOCCOCCOCCOCCOCCOCCC(=O)NCCCC[C@H](NC(=O)CCOCCOCCOCCOCCOCCOCCOCCOCCOCCOCCOCCOCCNC(=O)CNC(=O)[C@@H]2CSCC(=O)N[C@@H](Cc3c[nH]c4ccccc34)C(=O)N[C@@H](Cc3c[nH]c4ccccc34)C(=O)N[C@@H](C(C)C)C(=O)N[C@@H](CC(=O)O)C(=O)N[C@@H](C(C)C)C(=O)N[C@@H](CCC(N)=O)C(=O)N[C@@H](CC(=O)O)C(=O)N[C@@H](CC(=O)O)C(=O)N[C@@H](CC(C)C)C(=O)N[C@@H](Cc3ccc(O)cc3)C(=O)N[C@@H](Cc3ccccc3)C(=O)N[C@@H](C(C)C)C(=O)N[C@@H](CO)C(=O)N2)C(N)=O)NC(=O)[C@H](CO)NC(=O)[C@H](C(C)C)NC(=O)[C@H](Cc2ccccc2)NC(=O)[C@H](Cc2ccc(O)cc2)NC1=O", "note": "[compound 11] (I: {CH2CO}-WWVDVQDDLYFVSCG[PEG12]K-NH2 / II: {CH2CO}-WWVDVQDDLYFVSCG[PEG12]; amide I:17-II:C; thioether I:N-I:14, II:N-II:14)", "pVEGFR2 Assay Results": "2-C (1% or more but less than 50% activity at 100 nM)"}
{"molecule": "CC(C)C[C@@H]1NC(=O)[C@H](CC(=O)O)NC(=O)[C@H](CC(=O)O)NC(=O)[C@H](CCCCNC(=O)CCOCCOCCOCCOCCOCCOCCOCCOCCOCCOCCOCCOCCOCCOCCOCCOCCOCCC(=O)NCCCC[C@@H]2NC(=O)[C@H](C(C)C)NC(=O)[C@H](CC(=O)O)NC(=O)[C@H](C(C)(C)C)NC(=O)[C@H](Cc3c[nH]c4ccccc34)NC(=O)[C@H](Cc3ccc(OCC(=O)O)cc3)NC(=O)CSC[C@@H](C(=O)NCC(N)=O)NC(=O)[C@H](CC(=O)O)NC(=O)[C@H](CCc3ccc(O)cc3)NC(=O)[C@H](Cc3ccccc3)NC(=O)[C@H](Cc3ccc(O)cc3)NC(=O)[C@H](CC(C)C)NC(=O)[C@H](CC(=O)O)NC(=O)[C@H](CC(=O)O)NC2=O)NC(=O)[C@H](C(C)C)NC(=O)[C@H](CC(=O)O)NC(=O)[C@H](C(C)(C)C)NC(=O)[C@H](Cc2c[nH]c3ccccc23)NC(=O)[C@H](Cc2ccc(OCC(=O)O)cc2)NC(=O)CSC[C@@H](C(=O)NCC(N)=O)NC(=O)[C@H](CC(=O)O)NC(=O)[C@H](CCc2ccc(O)cc2)NC(=O)[C@H](Cc2ccccc2)NC(=O)[C@H](Cc2ccc(O)cc2)NC1=O", "note": "[compound 24] (I: {CH2CO}-Y(Carboxymethyl)W[Tle]DVKDDLYF[hTyr]DCG-NH2 / II: {CH2CO}-Y(Carboxymethyl)W[Tle]DVKDDLYF[hTyr]DCG-NH2; linker I:6-II:6 via CO(CH2)2(OCH2CH2)17CO; thioether I:N-I:14, II:N-II:14)", "pVEGFR2 Assay Results": "2-B (50% or more activity at 100 nM)"}
{"molecule": "CC(C)C[C@@H]1NC(=O)[C@H](CC(=O)O)NC(=O)[C@H](CC(=O)O)NC(=O)[C@H](CCCCNC(=O)CCOCCOCCOCCOCCOCCOCCOCCOCCOCCOCCOCCOCCOCCOCCOCCOCCOCCC(=O)NCCCC[C@@H]2NC(=O)[C@H](C(C)C)NC(=O)[C@H](CC(=O)O)NC(=O)[C@H](C3CCCCC3)NC(=O)[C@H](Cc3c[nH]c4ccccc34)NC(=O)[C@H](Cc3c[nH]c4ccccc34)NC(=O)CSC[C@@H](C(=O)NCC(N)=O)NC(=O)[C@H](CC(=O)O)NC(=O)[C@H](CCc3ccc(O)cc3)NC(=O)[C@H](Cc3ccccc3)NC(=O)[C@H](Cc3ccc(O)cc3)NC(=O)[C@H](CC(C)C)NC(=O)[C@H](CC(=O)O)NC(=O)[C@H](CC(=O)O)NC2=O)NC(=O)[C@H](C(C)C)NC(=O)[C@H](CC(=O)O)NC(=O)[C@H](C2CCCCC2)NC(=O)[C@H](Cc2c[nH]c3ccccc23)NC(=O)[C@H](Cc2c[nH]c3ccccc23)NC(=O)CSC[C@@H](C(=O)NCC(N)=O)NC(=O)[C@H](CC(=O)O)NC(=O)[C@H](CCc2ccc(O)cc2)NC(=O)[C@H](Cc2ccccc2)NC(=O)[C@H](Cc2ccc(O)cc2)NC1=O", "note": "[compound 25] (I: {CH2CO}-WW[Chg]DVKDDLYF[hTyr]DCG-NH2 / II: {CH2CO}-WW[Chg]DVKDDLYF[hTyr]DCG-NH2; linker I:6-II:6 via CO(CH2)2(OCH2CH2)17CO; thioether I:N-I:14, II:N-II:14)", "pVEGFR2 Assay Results": "2-C (1% or more but less than 50% activity at 100 nM)"}
